The results in this text go back to patent US20100120788A1, “IDENTIFICATION OF POLYNUCLEOTIDES FOR […] OF COMPOUNDS THAT […] WITH AND/OR MODULATE PROTEIN TYROSINE KINASES AND/OR PROTEIN TYROSINE KINASE […] IN PROSTATE CELLS” (Bristol-Myers Squibb Company, priority 2007, published 2010).

A word on the IC50: it is the midpoint of a concentration-inhibition curve.

One test deals with 16 prostate cell lines. In words: IC50 grouping of the panel of prostate cell lines (MTS). It counts as cell-based. To be noted: Homo sapiens. As for the experimental part: Based on the IC50s, cell lines were classified into two groups: 11 cell lines with IC50 lower than 200 nM were designated as sensitive group, and 5 cell lines with IC50 at least greater than 2 μM were considered as resistant group. The separation of these two groups was quite well, and the sensitive/resistant demarcation of 200 nM is within the peak range of BMS-A plasma concentrations in patients treated with the doses near the maximum tolerated dose.
The effect of BMS-A (dasatinib) treatment on cell proliferation was measured using a MTS colorimetric method (Promega, Madison, Wis.). The optimum number of cells to seed in 96-well plates to achieve linearity were determined in pilot experiments. Cells were plated at density of 2000-5000 cells/well into 96-well plates and cultured overnight. Cells were then treated with dasatinib at serially diluted concentrations. Three days later, MTS was added to the medium and quantified on a SPECTRAMAX® photometric plate reader (Molecular Devices, Sunnyvale, Calif.) at 490 nm. The results were plotted against drug concentrations and IC50s were calculated using Prism4 software (GraphPad, San Diego, Calif.). […] The mean±standard deviation (SD) were calculated except for cell lines that were highly resistant to the compound where accurate IC50s were hard to obtain. […]

The test system of the next test is DUCaP. The test can be described thus: In vitro cell proliferation assay (MTS). It counts as cell-based, human. As to conditions: DUCaP cells. As for the experimental part:
(§1) The IC50 for each cell line was assessed in by MTS assays as described in Example 1 (Methods). […] The IC50 unit is μM.
(§2) All cell lines were obtained from the American Type Culture Collection (Manassas, Va.), except DUCaP, which was obtained from Dr. Kenneth Pienta at University of Michigan. PWR1E and MDAPCa2b cells were grown in BRFF-HPC1 serum-free medium (AthenaES, Baltimore, Md.), and all other cells were cultured in RPMI 1640 supplemented with 10% fetal bovine serum, 100 IU/ml penicillin, and […] (Invitrogen, Carlsbad, Calif.). DUCaP cells were maintained in the presence of an immortalized mouse fibroblast cell line, which formed a layer beneath DUCaP cells that easily dislodged. Cells were incubated at 37° C. with circulation of 5% CO2.
(§3) The optimum number of cells to seed in 96-well plates to achieve linearity were determined in pilot experiments. Cells were plated at density of 2000-5000 cells/well into 96-well plates and cultured overnight. Cells were then treated with dasatinib at serially diluted concentrations. Three days later, MTS was added to the medium and quantified on a SPECTRAMAX® photometric plate reader (Molecular Devices, Sunnyvale, Calif.) at 490 nm. The results were plotted against drug concentrations and IC50s were calculated using Prism4 software (GraphPad, San Diego, Calif.). The IC50 was the concentration of dasatinib that would reduce cell proliferation by 50% compared to control. Minimum three independent assays were performed for each cell line. […] In the latter case, the concentration of dasatinib that was able to consistently reduce cell proliferation was used as IC50. […] Dasatinib stock, dissolved in DMSO, was 10 mg/ml.

For the next test, the system named is HPV7. The test can be described thus: In vitro cell proliferation assay (MTS). The format is cell-based, human. As to conditions: HPV7 cells. The procedure: as §1, §2, §3
A further test concerns PWR1E. In words: In vitro cell proliferation assay (MTS). As to conditions: PWR1E cells. It counts as cell-based, human. As for the experimental part:
as §1, §2, §3

The subject of another test is VCaP. The test can be described thus: In vitro cell proliferation assay (MTS). It counts as cell-based, human. As to conditions: VCaP cells. The procedure:
as §1, §2, §3

In the next test the test system is MDAPCa2b. In words: In vitro cell proliferation assay (MTS). The format is cell-based, human. To be noted: MDAPCa2b cells. The procedure:
as §1, §2, §3

Another test concerns HPV10. The test can be described thus: In vitro cell proliferation assay (MTS). It counts as cell-based, human. As to conditions: HPV10 cells. The procedure: as §1, §2, §3
Another test deals with 22Rvl. In words: In vitro cell proliferation assay (MTS). The format is cell-based, human. As to conditions: 22Rvl cells. The procedure: as §1, §2, §3
The subject of a further test is PC3. In words: In vitro cell proliferation assay (MTS). The format is cell-based, human. To be noted: PC3 cells. As for the experimental part:
as §1, §2, §3

A further test has as its system RWPE1. The test can be described thus: In vitro cell proliferation assay (MTS). It counts as cell-based, human. As to conditions: RWPE1 cells. The procedure: as §1, §2, §3
In another test the test system is NB26. The test can be described thus: In vitro cell proliferation assay (MTS). It counts as cell-based, human. As to conditions: NB26 cells. As for the experimental part: as §1, §2, §3
The next test concerns uPA protein. The test can be described thus: uPA protein level in plasma of mice bearing PC3 xenograft tumors (ELISA). The format is in vivo, nu/nu athymic mice. As to conditions: 30 mg/kg orally twice a day; following first week of treatment. As for the experimental part: (§4) FIG. 5. […] Xenograft tumors were established subcutaneously in nu/nu athymic mice. The mice were divided into three groups each with 8 mice after tumors had reached approximately 200 mg. […] Dasatinib was administered orally twice a day on a 5-day-on 2-day-off schedule for 20 doses. The tumor size measurement and blood sampling were performed prior to treatment and weekly for two weeks after treatment initiation. […] Experiments were performed as described in Example 2.
(§5) The mice were divided into three groups each with 8 mice after tumors had reached approximately 200 mg. […] Dasatinib was administered orally twice a day on a 5-day-on 2-day-off schedule for 20 doses. The tumor size measurement and blood sampling were performed prior to treatment and weekly for two weeks after treatment initiation. Tumor weight was determined using the following equation: tumor weight=(length*width^2)/2.
(In general: In an ELISA, binding on a coated surface is turned into a signal by an enzyme label.)

The next test relates to PC3 xenograft tumors. The test can be described thus: PC3 xenograft tumor growth. It counts as in vivo, nu/nu athymic mice. As to conditions: 15 or 30 mg/kg orally twice a day, 5-day-on 2-day-off, 20 doses. As for the experimental part: as §4, §5
Setting [1] is: Homo sapiens, 72 h, MTS, three days, highly resistant: concentration that consistently reduced proliferation used as IC50, read-out: mean IC50 (μM) to BMS-A.
The mark [2] stands for this setting: Homo sapiens, 72 h, MTS, three days, read-out: mean IC50 (μM) to BMS-A.

A value given as a limit tells only on which side of the number the result lay.

As to `Cc1nc(Nc2ncc(C(=O)Nc3c(C)cccc3Cl)s2)cc(N2CCN(CCO)CC2)n1` [BMS-A, N-(2-chloro-6-methylphenyl)-2-[[6-[4-(2-hydroxyethyl)-1-piperazinyl]-2-methyl-4-pyrimidinyl]amino]-5-thiazolecarboxamide], the IC50 in the test with 16 prostate cell lines (5 cell lines considered as resistant group) was greater than 2000 nM; with 16 prostate cell lines (11 cell lines designated as sensitive group), less than 200 nM; in the test with DUCaP (setting [1]) it was 2.5 µM; with HPV7 (setting [2]), 0.127 µM; in the test on PWR1E (Homo sapiens, PWR-1E, 72 h, MTS, three days, read-out: mean IC50 (μM) to BMS-A), 0.145 µM; in the test with VCaP (setting [1]), 2 µM. Further, the IC50 turned out to be 2.5 µM with MDAPCa2b (Homo sapiens, MDA-PCa-2b, 72 h, MTS, three days, highly resistant: concentration that consistently reduced proliferation used as IC50, read-out: mean IC50 (μM) to BMS-A); 0.058 µM in the test on HPV10 (setting [2]); 2 µM in the test on 22Rvl (setting [1]); 0.051 µM in the test on PC3 (Homo sapiens, PC-3, 72 h, MTS, three days, read-out: mean IC50 (μM) to BMS-A); 0.12 µM in the test with RWPE1 (Homo sapiens, RWPE-1, 72 h, MTS, three days, read-out: mean IC50 (μM) to BMS-A); 0.139 µM in the test on NB26 (setting [2]). The Classification entry in the test with DUCaP (based on IC50) is listed as “Resistant (those having an IC50 above 0.2 μm were considered to be resistant)”; in the test with HPV7 (based on IC50) it was “Sensitive (The cell lines with an IC50 lower than 0.2 μm were defined as sensitive to the compound)”; in the test with PWR1E (based on IC50), “Sensitive (The cell lines with an IC50 lower than 0.2 μm were defined as sensitive to the compound)”; in the test with VCaP (based on IC50), “Resistant (those having an IC50 above 0.2 μm were considered to be resistant)”; in the test on MDAPCa2b (based on IC50), “Resistant (those having an IC50 above 0.2 μm were considered to be resistant)”; in the test with HPV10 (based on IC50) it was “Sensitive (The cell lines with an IC50 lower than 0.2 μm were defined as sensitive to the compound)”. Also, the Classification result is given as “Resistant (those having an IC50 above 0.2 μm were considered to be resistant)” with 22Rvl (based on IC50), “Sensitive (The cell lines with an IC50 lower than 0.2 μm were defined as sensitive to the compound)” in the test with PC3 (based on IC50), “Sensitive (The cell lines with an IC50 lower than 0.2 μm were defined as sensitive to the compound)” in the test on RWPE1 (based on IC50) and “Sensitive (The cell lines with an IC50 lower than 0.2 μm were defined as sensitive to the compound)” in the test on NB26 (based on IC50). Further, the “reduction of plasma uPA level” value with uPA protein is given as roughly 30%. Besides, in the test with PC3 xenograft tumors, the “PC3 xenograft tumor growth” value is given as “inhibited”.
